Experimental data: patent US5225182A, “Vectored drug delivery system using a cephaloplastin linking agent and a methed of using the system” (priority 1991, dated 1993)

Legend:
lung = test: Biodistribution by gamma camera with technicium Tc-99 m; format: in vivo, mice; conditions: Tc-99 m given 30 min after injection
Method: Four groups of six male F1 hybrid mice (C57BL/6X DBA/2) 6-8 weeks old (20-25g body weight) were used for the study. Group A received unconjugated cis-Platinum; the second group, B, received cis-Platinum conjugated with the organ-specific vectoring reagent macroaggregated albumin (MAA). Group C received cis-Platinum conjugated with colloidal sulfur particles. Group D was injected with MAA alone, with no cis-Platinum conjugated or unconjugated, and served as controls. Three additional mice were used as normal untreated controls.
(§1) All experimental animals were injected intravenously (IV) with 0.5 mg doses of cis-Platinum to a final concentration of […] body weight, maximum volume 0.2 mL/mouse. The above protocol was used in Examples II-VI. In Examples VIII and IX, 8 mg/kg doses were administered intravenously.
Thirty minutes after injecting the mice with either agent, one millicurie of technicium Tc-99 m was injected IV and the mice placed under a gamma camera to trace the cis-Platinum.
Similar patterns of activity were seen when both groups of mice were injected after three days.

liver = test: Liver function tests on blood samples; format: in vivo, mice; conditions: after ten days of treatment
Method: Four groups of six male F1 hybrid mice (C57BL/6X DBA/2) 6-8 weeks old (20-25g body weight) were used for the study. […] Three additional mice were used as normal untreated controls.
In Examples VIII and IX, 8 mg/kg doses were administered intravenously.
The total number of nucleated cells, that is, the total number of total white blood cells, was counted with a Coulter counter and a blood film was prepared simultaneously for lymphocyte-to-neutrophil (L/N) ratio.
Liver function tests were performed on blood samples after ten days of treatment with the solutions (see Example III). Four doses were administered each day.

K1210 leukemia cells = test: Effect on mice implanted with leukemia cells; format: in vivo, DBF mice; conditions: 8 mg/kg i.v.
Method: as §1
DBF mice were planted intraperitoneally with 10^4 K1210 leukemia cells. Three days later, 8 mg/kg of cis-Platinum in saline and cis-Platinum conjugate preparation was given intravenously via a tail vein.

Colon 38 tumors = test: Antitumor tests, in vitro; format: cell-based, murine; conditions: Colon 38, in vitro, 21 days
Method: Lewis lung murine tumors of the biological type lung carcinoma were implanted subcutaneously in the group B C57BL/6 mice. Colon 38 of the histological type colon carcinoma was implanted in group C57BL/6. Three mice from group A were implanted with Lewis lung tumors and the remaining three were implanted with colon 38 tumors subcutaneously. Three mice from control group D were implanted with Lewis lung tumors and three with colon 38 tumors.
The antitumor activity of both solutions was tested in vitro. Colon 38 tumors were used for in vitro screening of the antitumor effect. Tumors were place in 10ml solution of each of the agents. The tumors were removed after 21 days of culture growth and examined for weight loss and shrinkage in size.

L1210 leukemia cells = test: Effect on in vivo tumor cells (L1210 leukemia); set-up: species or system DBA mice; conditions: 8 mg/kg iv
Method: as §1
10^4 L1210 leukemia cells were transplanted intravenously (iv) into DBA mice. Three days later the animals received 8 mg/kg cis-Platinum in saline or 8 mg/kg cisplatinum-conjugate administered (iv) (3 animals/group)

[1] = Drug release in vitro by column elution method; format: physicochemical; conditions: after 14 hrs, 37° C, saline 0.4 ml/min
Method: Using the conjugate prepared in Example XXVI, the drug release was estimated in vitro by the column elution method described below.
2.0 ml of deionized water was added to 11.6 mg of dry (lyophilized) conjugate as prepared in Example XXVI. The slurry was pipetted into 140 ×7 mm glass columns. The ends of each of the columns were filled with chromatographic caps packed with glass wool. The ends were then attached to threaded zero-volume collectors and connected to 10 mm 1:0 teflon tubing. The columns were placed in a circulating water bath at 37 ° C. Saline was pumped through columns at 0.4 ml/min flow rate with an HPLC pump (ALTEX 110A). Fractions were collected as a function of time at 4° C. and analyzed by uv/vis spectroscopy method. Results: Approximately 20% drug release was found in samples taken after 14 hrs.

bones = test: Progesterone delivery to bones (APAAP staining); format: in vivo, mice
Method: Thirty-nine mg of finely divided progesterone were added to 2.4 ml of linking agent containing Composition C and injected into mice (see Example XII). The drug was examined for its presence in bones after 2days by taking sections of bone from ribs and staining the sections with monoclonal antibodies to progesterone using the […] labeling system as described by Cordell et al. in J. Histochem. Cytochem. 32:219 (1984).

| Molecule | distribution of the radioisotope in organs in the abdomen (lung) | Prothrombin clotting time (liver) | SGOT (liver) | SGPT (liver) | Serum bilirubin (liver) | % ILS (K1210 leukemia cells) [%] | Shrinkage (Colon 38 tumors) [%] | Weight loss (Colon 38 tumors) [%] | Incr. Life Span (ILS) (L1210 leukemia cells) [%] | drug release [1] | delivery to the bones (bones; after 2 days, sections of rib bone) | retention in bones as an active molecule (bones; mouse, in vivo) |
| --- | --- | --- | --- | --- | --- | --- | --- | --- | --- | --- | --- | --- |
| N.N.[Cl-].[Cl-].[Pt+2] [cis-Pt, cis-Platinum (II) Diammine Dichloride] | even distribution of the radioisotope in all organs in the abdomen | 16 | 120 | 112 | 3.8 | 80 | 41 | 63 | 111 |  |  |  |
| progesterone |  |  |  |  |  |  |  |  |  | Approximately 20% | effectively delivered to the bones | up to 21 days |
